Several values for one entry are separate records, joined by “and”; a condition that tells them apart may be missing. Equal entries are not always repeated.
How the values were obtained:
MWCL-1 cells = experiment: Cell proliferation analysis for WM and lymphoma cell lines (CellTiter-Glo); assay type: cell-based; conditions: 72 hours
OCI-Ly3 cells = experiment: as above; assay type: cell-based; conditions: Homo sapiens, 72 hours
Ramos cells = experiment: as above; assay type: cell-based; conditions: Homo sapiens, 72 hours
BCWM.1 cells = experiment: as above; assay type: cell-based; conditions: BCWM1; 72 hours
OCI-Ly19 cells = experiment: as above; assay type: cell-based; conditions: Homo sapiens, 72 hours
PRCIWM-1 cells = experiment: as above; assay type: cell-based; conditions: 72 hours
Procedure: CellTiter-Glo® Luminescent cell viability assay (Promega) was used to assess cell survival following treatment with an inhibitor compound of Formula (I) or (II) (e.g., 1-14). Various cell lines were used including Waldenström's macroglobulinemia (WM) cell lines (BCWM.1, MWCL-1, RPCI-WM1) and B-cell lymphoma cell lines (OCI-Ly3, Ramos, OCI-Ly19). Cells were seeded into 384 well plates with the EL406 Combination Washer Dispenser (BioTek Instruments, Inc.) and inhibitor compounds were injected into the cells culture media with the JANUS Automated Workstation (PerkinElmer Inc.). Cells were treated with a series diluted inhibitor compounds (20˜0.04 μM) for 72 hours at 37° C. Luminescent measurement is performed using the 2104 Envision® Multilabel Reader (PerkinElmer Inc.).

mTOR = mTOR (Homo sapiens (Human), UniProt P42345); experiment: Invitrogen Select Screening in vitro kinase assay; assay type: biochemical
From the text: (§1) The in vitro activity of compounds of Formula (I) and (II) in inhibiting BMX and other kinases were obtained using an Invitrogen Select Screening assay as known in the art. The IC50 values determined from this assay are shown below.

BTK = BTK (Homo sapiens (Human), UniProt Q06187); experiment: Invitrogen Select Screening in vitro kinase assay; assay type: biochemical
Sequence of BTK (Q06187 whole entry): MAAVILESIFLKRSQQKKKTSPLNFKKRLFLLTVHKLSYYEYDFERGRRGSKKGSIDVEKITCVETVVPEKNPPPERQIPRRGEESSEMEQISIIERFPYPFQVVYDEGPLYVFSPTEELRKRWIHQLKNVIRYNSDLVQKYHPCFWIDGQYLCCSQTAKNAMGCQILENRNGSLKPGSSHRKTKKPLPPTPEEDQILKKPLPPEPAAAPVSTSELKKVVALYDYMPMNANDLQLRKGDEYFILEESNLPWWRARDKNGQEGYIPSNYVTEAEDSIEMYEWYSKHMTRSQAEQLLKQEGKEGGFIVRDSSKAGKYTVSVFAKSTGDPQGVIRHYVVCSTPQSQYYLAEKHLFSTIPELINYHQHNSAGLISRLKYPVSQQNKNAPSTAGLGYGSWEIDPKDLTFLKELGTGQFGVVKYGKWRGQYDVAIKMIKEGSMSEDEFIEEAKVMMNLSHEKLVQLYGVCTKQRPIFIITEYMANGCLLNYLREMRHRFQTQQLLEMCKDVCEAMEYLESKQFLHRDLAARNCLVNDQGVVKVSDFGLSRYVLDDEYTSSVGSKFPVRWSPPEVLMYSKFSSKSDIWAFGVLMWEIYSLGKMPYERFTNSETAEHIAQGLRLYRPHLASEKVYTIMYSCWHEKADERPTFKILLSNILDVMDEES

BMX = BMX (Homo sapiens (Human), UniProt P51813); experiment: Invitrogen Select Screening in vitro kinase assay; assay type: biochemical
Sequence of BMX (P51813 whole entry): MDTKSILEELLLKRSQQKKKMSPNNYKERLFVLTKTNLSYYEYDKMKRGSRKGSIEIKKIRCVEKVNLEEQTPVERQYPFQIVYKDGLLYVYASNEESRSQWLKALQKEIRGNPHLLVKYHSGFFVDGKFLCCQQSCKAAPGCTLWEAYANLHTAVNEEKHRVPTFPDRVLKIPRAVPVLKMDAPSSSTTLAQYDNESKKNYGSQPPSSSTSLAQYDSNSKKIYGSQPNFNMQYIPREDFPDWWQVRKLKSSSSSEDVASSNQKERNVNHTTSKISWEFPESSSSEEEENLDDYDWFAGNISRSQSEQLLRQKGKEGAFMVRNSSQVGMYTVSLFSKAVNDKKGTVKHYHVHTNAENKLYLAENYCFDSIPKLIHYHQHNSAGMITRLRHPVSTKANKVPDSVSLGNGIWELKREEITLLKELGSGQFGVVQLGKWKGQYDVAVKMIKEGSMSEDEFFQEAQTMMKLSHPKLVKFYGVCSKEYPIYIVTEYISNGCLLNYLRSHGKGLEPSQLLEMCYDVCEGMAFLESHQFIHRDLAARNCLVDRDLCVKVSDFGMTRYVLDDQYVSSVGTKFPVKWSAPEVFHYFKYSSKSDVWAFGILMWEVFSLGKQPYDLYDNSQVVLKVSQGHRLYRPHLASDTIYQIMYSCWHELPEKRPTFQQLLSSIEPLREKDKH

JAK3 = JAK3 (Homo sapiens (Human), UniProt P52333); experiment: Invitrogen Select Screening in vitro kinase assay; assay type: biochemical
Sequence of JAK3 (P52333 whole entry): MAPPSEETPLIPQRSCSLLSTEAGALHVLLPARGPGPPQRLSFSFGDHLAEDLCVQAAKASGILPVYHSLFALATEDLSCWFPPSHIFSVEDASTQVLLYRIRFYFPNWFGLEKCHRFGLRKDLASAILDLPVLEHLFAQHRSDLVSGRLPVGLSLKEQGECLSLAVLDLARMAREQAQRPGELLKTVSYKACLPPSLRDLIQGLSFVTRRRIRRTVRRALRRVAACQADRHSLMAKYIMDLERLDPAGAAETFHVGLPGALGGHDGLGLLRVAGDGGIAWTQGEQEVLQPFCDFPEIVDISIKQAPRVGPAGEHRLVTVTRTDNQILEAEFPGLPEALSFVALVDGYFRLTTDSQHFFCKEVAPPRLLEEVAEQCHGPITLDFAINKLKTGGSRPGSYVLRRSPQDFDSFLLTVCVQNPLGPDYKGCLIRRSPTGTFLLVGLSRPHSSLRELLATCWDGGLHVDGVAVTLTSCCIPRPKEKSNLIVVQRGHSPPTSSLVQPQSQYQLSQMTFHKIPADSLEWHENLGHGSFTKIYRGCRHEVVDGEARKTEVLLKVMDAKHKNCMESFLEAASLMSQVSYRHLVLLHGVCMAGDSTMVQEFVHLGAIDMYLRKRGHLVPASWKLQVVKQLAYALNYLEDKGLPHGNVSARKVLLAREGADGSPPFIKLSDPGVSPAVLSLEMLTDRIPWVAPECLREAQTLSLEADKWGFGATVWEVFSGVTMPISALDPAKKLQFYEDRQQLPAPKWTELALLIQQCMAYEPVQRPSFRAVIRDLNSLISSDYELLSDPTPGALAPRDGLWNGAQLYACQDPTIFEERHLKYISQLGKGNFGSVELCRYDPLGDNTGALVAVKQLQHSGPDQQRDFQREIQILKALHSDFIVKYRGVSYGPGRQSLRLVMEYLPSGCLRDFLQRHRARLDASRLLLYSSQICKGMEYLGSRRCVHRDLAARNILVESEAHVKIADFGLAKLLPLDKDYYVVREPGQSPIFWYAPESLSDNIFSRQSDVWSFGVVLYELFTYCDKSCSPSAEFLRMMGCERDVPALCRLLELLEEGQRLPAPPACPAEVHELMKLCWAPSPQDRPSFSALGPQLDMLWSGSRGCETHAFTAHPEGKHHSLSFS

BLK = BLK (Homo sapiens (Human), UniProt P51451); experiment: Invitrogen Select Screening in vitro kinase assay; assay type: biochemical
Sequence of BLK (P51451 whole entry): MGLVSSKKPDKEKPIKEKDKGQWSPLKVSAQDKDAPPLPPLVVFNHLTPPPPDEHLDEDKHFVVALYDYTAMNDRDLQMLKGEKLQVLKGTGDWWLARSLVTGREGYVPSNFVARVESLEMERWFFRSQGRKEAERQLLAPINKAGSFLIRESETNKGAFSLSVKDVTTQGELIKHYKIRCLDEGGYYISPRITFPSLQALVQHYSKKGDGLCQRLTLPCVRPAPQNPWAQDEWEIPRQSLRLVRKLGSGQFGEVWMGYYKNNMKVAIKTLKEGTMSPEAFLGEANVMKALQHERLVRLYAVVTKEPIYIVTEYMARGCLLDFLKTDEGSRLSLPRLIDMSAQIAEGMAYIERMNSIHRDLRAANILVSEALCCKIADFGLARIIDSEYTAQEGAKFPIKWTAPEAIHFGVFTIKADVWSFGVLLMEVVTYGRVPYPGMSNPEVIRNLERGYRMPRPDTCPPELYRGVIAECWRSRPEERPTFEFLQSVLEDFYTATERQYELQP
From the text: as §1

TEC = TEC (Homo sapiens (Human), UniProt P42680); experiment: Invitrogen Select Screening in vitro kinase assay; assay type: biochemical
Sequence of TEC (P42680 whole entry): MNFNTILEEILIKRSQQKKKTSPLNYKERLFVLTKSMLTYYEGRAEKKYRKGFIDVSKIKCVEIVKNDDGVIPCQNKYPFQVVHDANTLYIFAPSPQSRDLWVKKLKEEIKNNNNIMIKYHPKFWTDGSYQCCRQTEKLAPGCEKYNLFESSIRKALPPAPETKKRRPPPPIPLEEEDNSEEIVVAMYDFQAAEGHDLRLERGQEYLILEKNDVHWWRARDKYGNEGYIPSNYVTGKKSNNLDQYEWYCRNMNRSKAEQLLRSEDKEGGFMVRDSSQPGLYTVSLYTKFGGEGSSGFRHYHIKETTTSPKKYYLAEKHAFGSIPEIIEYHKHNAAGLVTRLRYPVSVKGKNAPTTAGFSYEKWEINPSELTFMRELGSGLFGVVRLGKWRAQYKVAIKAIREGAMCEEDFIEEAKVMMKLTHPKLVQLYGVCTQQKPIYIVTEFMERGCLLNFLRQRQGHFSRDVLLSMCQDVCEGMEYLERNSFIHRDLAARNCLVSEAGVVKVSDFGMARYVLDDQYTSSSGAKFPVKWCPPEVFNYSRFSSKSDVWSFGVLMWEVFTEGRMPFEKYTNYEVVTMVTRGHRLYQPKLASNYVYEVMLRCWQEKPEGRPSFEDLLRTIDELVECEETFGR
From the text: as §1

Row | EC50 (MWCL-1 cells) | EC50 (OCI-Ly3 cells) | EC50 (Ramos cells) | EC50 (BCWM.1 cells) | EC50 (OCI-Ly19 cells) | EC50 (PRCIWM-1 cells) | IC50 (mTOR) | IC50 (BTK) | IC50 (BMX) | IC50 (JAK3) | IC50 (BLK) | IC50 (TEC) | Compound
1 | 6820 nM | 3340 nM | 3830 nM | 3580 nM | 659 nM | 663 nM |  |  |  |  |  |  | C=CC(=O)Nc1cc(-n2c(=O)ccc3cnc4ccc(Nc5ccc6ccncc6c5)cc4c32)ccc1C [I-26]
2 | 9150 nM | 2590 nM | 6280 nM | 1350 nM | 374 nM | 345 nM |  |  |  |  |  |  | C=CC(=O)Nc1cc(-n2c(=O)ccc3cnc4ccc(Nc5ccc6cnccc6c5)cc4c32)ccc1C [I-27]
3 | 7490 nM | 3590 nM | 3430 nM | 4440 nM | 1050 nM | 691 nM |  |  |  |  |  |  | C=CC(=O)Nc1cc(-n2c(=O)ccc3cnc4ccc(Nc5ccc6cccnc6c5)cc4c32)ccc1C [I-28]
4 | 7290 nM | 3080 nM | 2570 nM | 2200 nM | 390 nM | 528 nM |  |  |  |  |  |  | C=CC(=O)Nc1cc(-n2c(=O)ccc3cnc4ccc(Nc5ccc6ncccc6c5)cc4c32)ccc1C [I-29]
5 |  |  |  |  |  |  | 173 nM | 14 nM | 8.16 nM and 8 nM |  |  |  | C=CC(=O)Nc1cc(-n2c(=O)ccc3cnc4ccc(-c5cnn(C)c5)cc4c32)ccc1C [II-3]
6 | 1550 nM | 408 nM | 872 nM | 643 nM | 454 nM | 86 nM | 17 nM | 16 nM | 12.9 nM and 13 nM |  |  |  | C=CC(=O)Nc1cc(-n2c(=O)ccc3cnc4ccc(-c5ccc(N)nc5)cc4c32)ccc1C [II-5]
7 |  |  |  |  |  |  | 19 nM | 19 nM | 15.7 nM and 16 nM |  |  |  | C=CC(=O)Nc1cccc(-n2c(=O)ccc3cnc4ccc(-c5ccc(N)nc5)cc4c32)c1 [II-7]
8 |  |  |  |  |  |  | 41 nM | 18 nM | 10.5 nM and 11 nM |  |  |  | C=CC(=O)Nc1cccc(-n2c(=O)ccc3cnc4ccc(-c5cn[nH]c5)cc4c32)c1 [II-8]
9 |  |  |  |  |  |  | 369 nM | 39 nM | 19.7 nM and 20 nM |  |  |  | C=CC(=O)Nc1cc(-n2c(=O)ccc3cnc4ccc(-c5ccsc5)cc4c32)ccc1C [II-9]
10 | 2160 nM | 480 nM | 280 nM | 410 nM | 70 nM |  | 4790 nM | 17 nM | 12.1 nM and 12 nM | 492 nM |  |  | C=CC(=O)Nc1cc(-n2c(=O)ccc3cnc4ccc(-c5ccoc5)cc4c32)ccc1C [II-10]
11 | 670 nM | 240 nM | 200 nM | 190 nM | 90 nM |  | 1 nM | 115 nM | 66.1 nM and 66 nM | 1520 nM | 1950 nM |  | C=CC(=O)Nc1cc(-n2c(=O)ccc3cnc4ccc(-c5cccnc5)cc4c32)ccc1C [II-11]
12 |  |  |  |  |  |  | 59 nM | 7 nM | 5.62 nM and 6 nM |  |  |  | C=CC(=O)N1CCc2ccc(-n3c(=O)ccc4cnc5ccc(-c6cnc7ccccc7c6)cc5c43)cc21 [II-12]
13 | 2470 nM | 1670 nM | 1350 nM | 770 nM | 100 nM |  | 98 nM | 6 nM | 13.3 nM and 13 nM | 5640 nM | 300 nM | 27 nM | C=CC(=O)N1CCc2ccc(-n3c(=O)ccc4cnc5ccc(-c6ccc(N)nc6)cc5c43)cc21 [II-13]
14 |  |  |  |  |  |  |  | 337 nM |  |  |  |  | C=CC(=O)N1CCc2ccc(-n3c(=O)ccc4cnc5ccc(-c6cnc(N)cc6C(F)(F)F)cc5c43)cc21 [II-15]
15 |  |  |  |  |  |  | 32 nM | 25 nM | 18.5 nM and 19 nM |  |  |  | C=CC(=O)Nc1cc(-n2c(=O)ccc3cnc4ccc(-c5cnc6ccccc6c5)cc4c32)ccc1C [II-16]
16 | 1550 nM | 408 nM | 872 nM | 643 nM | 454 nM | 86 nM |  |  |  |  |  |  | C=CC(=O)Nc1cc(-n2c(=O)ccc3cnc4ccc(-c5cnn(S(=O)(=O)c6ccccc6)c5)cc4c32)ccc1C [II-23]

Source: patent US10000483B2, “Bone marrow on X chromosome kinase (BMX) inhibitors and uses thereof” (Dana-Farber Cancer Institute, Inc., priority 2012, dated 2018)
